In patent publication US20070224167A1, “Novel HCV inhibitor combinations and methods” (priority 2006, published 2007):

Tested on: replicon variants with reduced susceptibility to HCV-796, including C316Y
Assay: Susceptibility of HCV-796 resistant replicons to SCH 503034
Format: cell-based
Conditions: 72 hours, vs wild-type replicon
Description: The antiviral activity of SCH 503034 against the replicon variants that have shown reduced susceptibility to HCV-796 is evaluated. Briefly, the replicon-containing cells are seeded in 96-well plates at a subconfluent density (7000 cells/well) in a medium containing 2% FBS without G418. SCH 503034 solubilized with 100% dimethylsulfoxide (DMSO) is prepared in a […], 2-fold dilution series, with a final DMSO concentration of 0.5% and a final volume of […]. The final concentrations for SCH 503034 are […], 6.3, 12.5, 25, 50, 100, 200, 400, 800, 1600 and 3200 nM. The plate is incubated for 72 hours at 37° C. and 5% CO2 before quantification of HCV and GAPDH RNAs.

CC(C)(C)NC(=O)N[C@H](C(=O)N1C[C@H]2[C@@H]([C@H]1C(=O)NC(CC1CCC1)C(=O)C(N)=O)C2(C)C)C(C)(C)C (stereo partly drawn) [SCH 503034, (1R,5S)—N-[3-amino-1-(cyclobutylmethyl)-2,3-dioxopropyl]-3-[2(S)-[[[(1,1-dimethylethyl)amino]carbonyl]amino]-3,3-dimethyl-1-oxobutyl]-6,6-dimethyl-3-azabicyclo[3.1.0]hexan-2(S)-carboxamide]
Activity of SCH 503034 on HCV-796 resistant replicons: active
Activity of SCH 503034 on HCV-796 resistant replicons (listed as SCH-503034): equivalent inhibitory activity
